From EP4793271A1, “NEUROPROTECTIVE AGENT” (National Center of Neurology and Psychiatry, priority 2023, dated 2025)

What was measured:
[1] = system: primary cultured cells of mouse fetus-derived dorsal root ganglia (DRGs); assay: Suppression of axonal degeneration after axotomy in DRG explant culture; type: cell-based; conditions: minimum concentration at which axonal degeneration was suppressed (DI 0.3 or less), 24 hours after axotomy; for minimal effective concentration: Mus musculus, read-out: Evaluation on protection against degeneration
Procedure: The compound of the present invention was studied for its protective effect against axonal injury using primary cultured cells of mouse fetus-derived dorsal root ganglia (DRGs).
DRGs were collected from a fetus derived from an ICR mouse (13.5 days of pregnancy). DRGs were cultured using a plate coated by incubation with 0.1 mg/mL poly-L-lysine at 4°C for 24 hours or longer, washing with PBS, and then incubation with 2.5 µg/mL Cultrex Mouse Laminin I at 37°C for 4 to 6 hours.
One of DRGs collected was plated to each well of the coated 24-well plate. The DRG was cultured in a nicotinamide-free medium for neuron (supplemented with 10% FBS, 1 mM glutamine, 50 ng/mL NGF2.5S, and penicillin-streptomycin) for 24 hours at maximum from the start of culture and then cultured in a nicotinamide-free medium for neuron (supplemented with 2% MACS NeuroBrew-21, 50 ng/mL NGF2.5S, 1% Glutamax, 20 µM uridine, 20 µM 5-fluoro-2'-deoxyuridine, and penicillin-streptomycin) for 7 to 8 days.
The nicotinamide-free medium for neuron was prepared so as to have the same constituents as those of the composition published in a previously reported paper (Brewer et al., J. Neuroscience Research 35: 567-576) except for nicotinamide with reference to this composition.
The test compound is dissolved in DMSO and added to cells such that the final concentration of DMSO is 0.1% (1000-fold dilution). 10 mM, 1 mM, 100 µM, 10 µM, 1 µM, and 100 nM samples of the test compound are prepared and added at a 1000-fold dilution to cells.
Axotomy was carried out by scooping out a cell body portion of the cultured DRG with a chip for a micropipette. The test compound was added at the following concentrations (final concentration: 10 µM, 1 µM, 100 nM, 10 nM, 1 nM, and 100 pM) within 30 minutes after axotomy. The compound was evaluated for its protective effect against axonal degeneration by imaging (Leica DMIL microscope, 20× objective lens) the state of neurites 24 hours after axotomy and evaluating the degree of degeneration. The degree of degeneration was quantified using a program uniquely developed using the R language. A degeneration index (DI) was used as an indicator for the degree of degeneration, and the ratio of the area of a fragmented axon to the total area of axons was calculated as defined in the equation of Expression 2. Suppressed axonal degeneration was evaluated when the value of DI was 0.3 or less. The minimum concentration at which axonal degeneration was suppressed was determined for each compound. Degeneratioin index (DI) = (Degenerated axons)/(All axons) [formula]
The axonal protective activity was evaluated as A ≤ 0.01 µM, 0.01 µM < B ≤ 0.1 µM, and 0.1 µM < C ≤ 1 µM depending on the minimum concentration at which axonal degeneration was suppressed.

[2] = target: T1, nicotinamide phosphoribosyl transferase (NAMPT) (Homo sapiens, UniProt P43490); assay: NAMPT activity measurement (NMN fluorescence detection); type: biochemical; conditions: NAMPT recombinant protein, 10 µM Nam; for IC50: read-out: Evaluation on NAMPT inhibitory
T1 construct: purchased Medical & Biological Laboratories Co., Ltd. (MBL)
Procedure: The compound of the present invention was evaluated for the ability to influence the activity of nicotinamide phosphoribosyl transferase (NAMPT) which is an enzyme that metabolizes nicotinamide (Nam), not the target SARM1.
The enzymatic reaction of NAMPT was carried out by adding NAMPT recombinant protein (manufactured by Medical & Biological Laboratories Co., Ltd. (MBL)) to a reaction solution containing the substrate Nam, phosphoribosylpyrophosphate (PRPP), ATP, and the like (composition: […] (pH = 7.4), 2 µM ATP, 0.5 µM PRPP, 0.02% BSA, 2 µM DTT, 1.2 µM MgCl2, and 10 µM Nam). The amount of the reaction product NMN was detected by detecting the fluorescent signal of a fluorescent substance obtained through the reaction of 2-acetylbenzofuran with NMN using SpectraMax M2 (Molecular Devices) (excitation: 421 nm, fluorescence: 480 nm) (Moriya et al, Chemical Communications 2013, 49 11500). The test compound was added at final concentrations of 10 µM, 3 µM, 1 µM, 300 nM, 100 nM, 30 nM, 10 nM, and 3 nM to the NMN synthesis reaction system described above. The NMN-derived fluorescent signal was normalized against a control group and plotted as the function of the test compound concentrations, and the compound was evaluated for its NAMPT inhibitory effect by calculating IC50.
The IC50 value was evaluated as ∘ for ≥1 µM and as Δ for ≥0.1 µM.

[3] = target: T2, hSARM1 (Homo sapiens, UniProt Q6SZW1); assay: Human SARM1 activity measurement in HEK293 cells transiently transfected with ΔN-hSARM1 (PC6 fluorescent probe); type: cell-based; parameters: expressed in transfected cells; host or cells: HEK293, pcDNA3 expression vector; conditions: inhibition rate; compound 30 µM; PC6 50 µM; HEK293 cells expressing ΔN-hSARM1; approximately 48 hours from transfection; read-out: Evaluation on hSARM1 inhibitory
T2 sequence (Q6SZW1 28-724): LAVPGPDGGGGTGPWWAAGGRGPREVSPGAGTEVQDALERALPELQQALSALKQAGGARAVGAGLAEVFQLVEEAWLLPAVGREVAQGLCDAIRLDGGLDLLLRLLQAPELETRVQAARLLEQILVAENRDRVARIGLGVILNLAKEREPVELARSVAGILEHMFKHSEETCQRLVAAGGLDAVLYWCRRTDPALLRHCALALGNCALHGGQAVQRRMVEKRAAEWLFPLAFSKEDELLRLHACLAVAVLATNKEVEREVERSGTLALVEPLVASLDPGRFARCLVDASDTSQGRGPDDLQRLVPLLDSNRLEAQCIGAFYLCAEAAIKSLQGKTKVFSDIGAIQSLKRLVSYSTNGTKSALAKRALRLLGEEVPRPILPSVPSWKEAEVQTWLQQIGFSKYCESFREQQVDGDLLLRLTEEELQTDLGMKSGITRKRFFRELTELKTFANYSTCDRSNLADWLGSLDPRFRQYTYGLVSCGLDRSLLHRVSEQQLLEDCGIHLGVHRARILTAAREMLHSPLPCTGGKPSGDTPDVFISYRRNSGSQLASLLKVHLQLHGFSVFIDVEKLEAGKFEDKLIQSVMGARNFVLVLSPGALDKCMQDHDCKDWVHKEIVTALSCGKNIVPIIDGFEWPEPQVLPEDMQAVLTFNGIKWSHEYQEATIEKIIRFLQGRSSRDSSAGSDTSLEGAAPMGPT
Procedure: HEK293 cells cultured in a prepared medium of nicotinamide-free DMEM (Dulbecco's modified Eagle medium) supplemented with 10% FBS (BioSera), a 1% penicillin-streptomycin solution (FUJIFILM Wako Pure Chemical Corp.), 5 μM nicotinamide were inoculated at approximately 50,000 cells/well to a 96-well microplate, and the cells were cultured at 37°C under 5% CO2, transiently transfected on the next day with a pcDNA3 expression vector containing a DNA sequence (SEQ ID NO: 1) deficient in a mitochondrial targeting sequence encoded by an N-terminal 78-base sequence in cDNA encoding human sterile α- and armadillo-motif-containing protein (hSARM1) using PEI MAX(R) reagent (PolySciences Inc.), and forced to express ΔN-hSARM1 (SEQ ID NO: 2). Approximately 8 hours later, PC6, which reacts as a substrate of SARM1-specific base exchange reaction and functions as a fluorescent probe, was added thereto at a final concentration of 50 μM, and intracellular hSARM1 activity was measured (Li et al, eLife 2021 10: e67381). A compound for inhibitory activity evaluation was added at a final concentration of 30 μM at the same time with PC6, while dimethyl sulfoxide (Nacalai Tesque Inc.) was added to samples of a control group at the same time with PC6. The cells were incubated at 37°C under 5% CO2 for approximately 48 hours from transfection, followed by fluorescent signal measurement using SpectraMax M2 (Molecular Devices) (excitation: 405 nm, fluorescence: 525 nm, fluorescence cutoff: 515 nm). Results of this screening are reported as an inhibition rate (%) relative to a negative control defined as follows by using fluorescence intensity measured from a control group without transfection with ΔN-hSARM1 as a background whereas using fluorescence intensity measured from a control group transfected with ΔN-hSARM1 as the negative control. Inhibitory rate (%) = 100-(([…]-Background))/((Signalofthenegativecontrol-Background)) × 100 [formula] The nicotinamide-free medium was prepared so as to have the same composition as that of DMEM having known composition which is generally used in the art except for nicotinamide. […]

T1 sequence (P43490 whole entry, species assumed): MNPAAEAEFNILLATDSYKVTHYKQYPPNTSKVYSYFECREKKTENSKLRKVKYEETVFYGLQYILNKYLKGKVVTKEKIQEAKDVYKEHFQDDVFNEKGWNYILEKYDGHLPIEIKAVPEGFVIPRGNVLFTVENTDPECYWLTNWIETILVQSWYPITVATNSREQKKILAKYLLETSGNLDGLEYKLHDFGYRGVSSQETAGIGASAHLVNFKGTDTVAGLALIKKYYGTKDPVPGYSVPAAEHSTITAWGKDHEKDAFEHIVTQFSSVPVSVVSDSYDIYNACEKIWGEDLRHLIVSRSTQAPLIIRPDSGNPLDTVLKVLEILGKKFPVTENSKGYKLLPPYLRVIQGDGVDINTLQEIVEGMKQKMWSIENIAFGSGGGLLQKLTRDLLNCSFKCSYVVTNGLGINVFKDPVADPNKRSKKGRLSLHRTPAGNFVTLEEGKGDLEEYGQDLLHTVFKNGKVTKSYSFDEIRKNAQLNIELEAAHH

Evaluation on NAMPT inhibitory [2]	inhibition at 30 µM [3] [%]	IC50 [2] [nM]	Compound	minimal effective concentration [1] [µM]	Evaluation on protection against degeneration [1]
○	> 50	–	C#CCOc1ccc(C(=O)Nc2ccc(CNC(=O)c3cccnc3)cn2)cc1 [compound 91]	≤ 0.01	–
○	> 50	–	COC(=O)c1ccc(OCCOCCNC(=O)c2cccnc2)cc1 [compound 32]	≤ 0.01	–
○	> 75	–	Cc1ccc(C(=O)Nc2ccc(CNC(=O)c3cccnc3)cn2)cc1C [Compound 134]	≤ 0.01	–
–	> 75	≥ 100	COC(=O)c1ccc(OCCOCCNC(=O)/C=C/c2cccnc2)cc1 [compound 31]	≤ 0.01	–
○	> 75	–	O=C(NCc1ccc(NC(=O)c2ccncc2)nc1)c1cccnc1 [Compound 124]	≤ 0.01	–
○	> 10	–	O=C(NCc1ccc(NC(=O)c2cccnc2)c(Cl)c1)c1cccnc1 [Compound 112]	–	B (0.01 µM < B ≤ 0.1 µM)
○	> 75	–	O=C(NCc1ccc(CNC(=O)c2ccccc2)nc1)c1cccnc1 [Compound 153]	0.01 to 0.1	–
○	> 10	–	O=C(NCCOCCOc1ccccc1)c1cccnc1 [compound 98]	0.01 to 0.1	–
○	> 10	–	O=C(NCc1ccc(NC(=O)c2ccccc2)c(Cl)c1)c1cccnc1 [Compound 111]	≤ 0.01	–
–	> 75	≥ 100	O=C(NCc1ccc(NC(=O)c2ccccn2)nc1)c1cccnc1 [Compound 125]	≤ 0.01	–
○	> 10	–	O=C(NCc1ccc(NC(=O)c2ccccc2)nc1)c1cnc2ccccc2c1 [Compound 140]	0.1 to 1	–
○	> 75	–	O=C(NCc1ccc(NC(=O)c2ccc(Cl)cc2)nc1)c1cccnc1 [Compound 118]	≤ 0.01	–
○	> 75	–	O=C(NCc1ccc(NC(=O)c2cc(F)cc(F)c2)nc1)c1cccnc1 [Compound 138]	≤ 0.01	–
–	> 75	≥ 100	O=C(NCc1ccc(NC(=O)c2cccc(OC(F)(F)F)c2)nc1)c1cccnc1 [compound 86]	0.01 to 0.1	–
○	> 75	–	Cc1ccccc1C(=O)Nc1ccc(CNC(=O)c2cccnc2)cn1 [Compound 130]	≤ 0.01	–
–	> 75	≥ 100	O=C(NCCCCCCNC(=O)c1cncc(O)c1)c1cccnc1 [compound 57]	0.01 to 0.1	–
○	> 50	–	O=C(C#Cc1ccccc1)Nc1ccc(CNC(=O)c2cccnc2)cn1 [Compound 184]	0.01 to 0.1	–
–	> 75	≥ 100	NCCOCCCCCCCCNC(=O)c1cccnc1 [compound 96]	≤ 0.01	–
–	> 75	≥ 100	O=C(/C=C/c1cccnc1)NCCCOc1ccc(CNC(=O)c2ccccc2)cc1 [compound 16]	≤ 0.01	–
–	> 75	≥ 100	CCCCCC(=O)Nc1ccc(CNC(=O)c2cccnc2)cn1 [Compound 160]	≤ 0.01	–
○	> 75	–	O=C(CCc1ccccc1)Nc1ccc(CNC(=O)c2cccnc2)cn1 [Compound 115]	≤ 0.01	–
○	> 75	–	N#Cc1ccc(CCC(=O)Nc2ccc(CNC(=O)c3cccnc3)cn2)cc1 [Compound 173]	0.01 to 0.1	–

Compound	Evaluation on NAMPT inhibitory [2]	inhibition at 30 µM [3] [%]	IC50 [2] [nM]	minimal effective concentration [1] [µM]	Evaluation on protection against degeneration [1]
NCCCOCCOCCCNC(=O)c1cccnc1 [compound 106]	○	> 25	–	≤ 0.01	–
